In US12058996B2, “High subzero cryopreservation” (The General Hospital Corporation, priority 2017, dated 2024):
Each block holds one molecule with its values, some of them ahead of it.

Tests used:
[1] = tested on: livers (parenchyma and endothelial cells)
From the text: In the experiments, endothelial damage occurred as a result of the loading process of high viscosity solutions. This liver was not frozen and was only subjected to the loading protocol with 10% glycerol as the main cryoprotectant.
A stepwise loading protocol was preformed to address this issue. The liver was sampled for histology and endothelial analysis immediately after CPA loading. Thus, all livers presented were not frozen/stored and had the independent damage of the loading protocol only. Furthermore, the loading protocol was redesigned with special consideration for the impact of dramatic changes in osmolality between distinct phases of CPA loading. Thus, a step-wise loading protocol was finalized.
The stepwise loading protocol was tested in the following way: (1) “Loading 1” refers to the 3-OMG loading phase which is essential for intracellular delivery of this CPA. 3-OMG is loaded using the subnormothermic cocktail containing a William's E media base supplemented with heparin, hydrocortisone, insulin, etc.
First, livers were continuously perfused with either 50 or 100 mM 3-OMG at subnormothermic temperatures for 60 minutes (“Loading 1”) and were immediately sampled for histology.
After the experiment was stopped, livers were sampled for histology.

[2] = tested on: Human Umbilical Vein Endothelial Cells (HUVEC); assay: Endothelial cell attachment with CPAs without freezing (FIG. 9); format: cell-based; details: 100 mM 3-OMG, p=0.6995
Description: Prior to coating with endothelial cells, microchannels were sonicated briefly (3 min in isopropanol; Branson 200, Branson Ultrasonics), and then rinsed with PBS. Channels were then coated with 1 mg/mL fibronectin (dissolved in sterile PBS, total of 10 μl) and incubated for 60 min at 37° C. After a priming step, HUVEC cells were trypsinized, counted, and re-suspended in EBM-2 complete media (˜10.0×10^6 cells per mL). Cells were subsequently introduced to the cell seeding port and incubated at 37° C. 5% CO2 for 30 min (FIG. 1A). Final constriction diameters of cellularized microchannels varied from ˜10 to 20 μm across the lengths of individual channels due to the presence of cellular nuclei along channel walls. […]
Cell attachment values were quantified by counting the total number of Hoechst positive cells (i.e. total number of cell nuclei) and dividing by the total number of channels (each device has maximum of 16 channels). Membrane integrity was quantified by counting the number of propidium iodide positive cells divided by the total number of Hoechst positive cells. Cell attachment and membrane integrity are expressed as box-and-whiskers plots showing median, interquartile range, maxima, and minima (n=4-8). […]

[3] = tested on: Human Umbilical Vein Endothelial Cells (HUVEC); assay: Cryostage freeze-thaw of endothelial cell-coated microchannels (cell attachment, membrane integrity); format: cell-based; details: with Snomax
Description: Prior to coating with endothelial cells, microchannels were sonicated briefly (3 min in isopropanol; Branson 200, Branson Ultrasonics), and then rinsed with PBS. Channels were then coated with 1 mg/mL fibronectin (dissolved in sterile PBS, total of 10 μl) and incubated for 60 min at 37° C. After a priming step, HUVEC cells were trypsinized, counted, and re-suspended in EBM-2 complete media (˜10.0×10^6 cells per mL). Cells were subsequently introduced to the cell seeding port and incubated at 37° C. 5% CO2 for 30 min (FIG. 1A). Final constriction diameters of cellularized microchannels varied from ˜10 to 20 μm across the lengths of individual channels due to the presence of cellular nuclei along channel walls. Coated microchannels were then fed under continuous gravity flow using a pipet tip containing media and inserted into the delivery port to generate flow in the reverse direction from loading (FIG. 1A). Pipet tips (200 μl) filled with media provided an initial hydrostatic head of 2.5 cm H2O. Cells incubated at 37° C. 5% CO2 up to 3 days with daily replacement of tips with filled media before proceeding to experimentation. […] Control, unfrozen microchannels were stained with Calcein green (1:1000), Hoescht (H3570; 1:1000 v:v), and propidium iodide (4 μg/mL) for 20 min and imaged, while microchannels imaged prior to experimentation/freezing were only stained with Calcein green (1:1000). These experimental microchannels were subsequently stained after experimentation/freezing with Hoescht (H3570; 1:1000 v:v), and propidium iodide (4 μg/mL).
Endothelial cell-coated microchannels were prepared, and placed on the silver block of a FDCS196 cryostage (Linkam Scientific Instruments Ltd, London, UK), the temperature of which was controlled by the TMS 94 temperature controller with the accuracy of ±0.1° C. Microchannels bonded to glass slides were cut into individual devices so they would fit on the silver block of the Linkam cryostage. A PixeLINK PL-A662 camera (PixeLINK, Ottawa, Canada) was used to visualize ice formation and propagation. In all cases, ice nucleation temperature was recorded and ice propagation throughout the device was confirmed by direct visual inspection (FIG. 7). Prior to freezing, endothelial cell-coated microchannels in the 3-O-methyl-D-glucopyranose (3-OMG) experimental group were incubated with EBM-2 complete media supplemented with either 50 or 100 mM 3-OMG at 37° C. to promote intracellular transport of the glucose analog. Supplementation of 3-OMG in the basal media and incubation at 37° is an effective method for intracellular delivery of 3-OMG. […] Snomax (Snomax International, Englewood, CO, USA) was used as the model ice nucleator in this study (1 mg/mL). Microchannels were perfused with PBS containing ice nucleators and/or cryoprotectant agents for 10 min prior to beginning the cooling profile. During the freezing experiment, the temperature was first cooled at 10° C./min to 4° C. After thermal stabilization, a cooling rate of 1° C./min was applied until reaching the holding temperature. […] For microchannels which contained Snomax, ice was observed <−6° C. in all cases, and channels were cooled to −6, −10, or −20° C. At the lowest holding temperature, microchannels were held for 3-5 min before a rapid rewarming at +30° C./min (FIG. 1C). After rewarming, microchannels were stained with Hoescht (nuclear) and propidium iodide (membrane integrity) dissolved in EBM-2 complete media for 20 min and imaged, in which the cell membrane integrity was used as a discriminator of live and dead cells.
Cell attachment values were quantified by counting the total number of Hoechst positive cells (i.e. total number of cell nuclei) and dividing by the total number of channels (each device has maximum of 16 channels). Membrane integrity was quantified by counting the number of propidium iodide positive cells divided by the total number of Hoechst positive cells. […]

[4] = pH change of storage solution on freezing (phenol red); format: physicochemical; details: phenol red in storage solution
From the text: The pH can change dramatically as a function of freezing and holding temperature. Depending on the components of the storage solution, the biologic sample can be exposed to an acidic or a basic environment. These changes can be determined by adding phenol red to the storage solution. […] This pH change is relevant and can affect the preservation media. To counter these fluctuations in pH, the goal is to introduce “counter ions” which can balance the pH change.

SMILES: OCC(O)CO [glycerol]
cell death after loading that was not stepwise (FIG. 15A) [1]: majority of cell death evident in endothelial cells

cell attachment versus unfrozen controls without CPAs [2]: no statistical significant difference
SMILES: CO[C@H]1[C@H](O)[C@@H](CO)OC(O)[C@@H]1O (stereo partly drawn) [3-OMG, 3-O-methyl-D-glucopyranose]
cell attachment ([3]; 50 mM 3-OMG, Thold −6° C.): 33.2±9.1 cells/lane
percent PI positive cells (membrane integrity) ([3]; 50 mM 3-OMG, Thold −6° C.): 7.4±3.7%
cell attachment ([3]; 50 mM 3-OMG, Thold −10° C.): 15.1±8.2 cells/lane
percent PI positive cells (membrane integrity) ([3]; 50 mM 3-OMG, Thold −10° C.): 38.1±7.5%
cell attachment ([3]; 100 mM 3-OMG, Thold −6° C.): 31.4±6.6 cells/lane
percent PI positive cells (membrane integrity) ([3]; 100 mM 3-OMG, Thold −6° C.): 7.3±2.8%
cell attachment ([3]; 100 mM 3-OMG, Thold −10° C.): 33.6±8.8 cells/lane
percent PI positive cells (membrane integrity) ([3]; 100 mM 3-OMG, Thold −10° C.): 20.5±12.4%

pH change of solution as the result of freezing [4]: became basic
SMILES: O=C([O-])O.[Na+] [sodium bicarbonate]
